Key:
[1] = target: T1, COX-2 (Homo sapiens, UniProt P35354); test: fluorometric COX-2 inhibition assay (Cayman Chemical kit); type: biochemical; conditions: for inhibition at 50 µM: read-out: COX-2 Inhibition (%); for COX-2 inhibition corresponding to plateau (FIGS. 3A, 3B): after molar concentrations exceeded 10 μM; for COX-2 inhibitory effect (FIG. 1): used individually at 50 μM, 10 μM, 2 μM, 0.04 μM
T1 construct: purchased BioVision Inc. (Mountain View, CA, USA)
T1 sequence (P35354 18-604): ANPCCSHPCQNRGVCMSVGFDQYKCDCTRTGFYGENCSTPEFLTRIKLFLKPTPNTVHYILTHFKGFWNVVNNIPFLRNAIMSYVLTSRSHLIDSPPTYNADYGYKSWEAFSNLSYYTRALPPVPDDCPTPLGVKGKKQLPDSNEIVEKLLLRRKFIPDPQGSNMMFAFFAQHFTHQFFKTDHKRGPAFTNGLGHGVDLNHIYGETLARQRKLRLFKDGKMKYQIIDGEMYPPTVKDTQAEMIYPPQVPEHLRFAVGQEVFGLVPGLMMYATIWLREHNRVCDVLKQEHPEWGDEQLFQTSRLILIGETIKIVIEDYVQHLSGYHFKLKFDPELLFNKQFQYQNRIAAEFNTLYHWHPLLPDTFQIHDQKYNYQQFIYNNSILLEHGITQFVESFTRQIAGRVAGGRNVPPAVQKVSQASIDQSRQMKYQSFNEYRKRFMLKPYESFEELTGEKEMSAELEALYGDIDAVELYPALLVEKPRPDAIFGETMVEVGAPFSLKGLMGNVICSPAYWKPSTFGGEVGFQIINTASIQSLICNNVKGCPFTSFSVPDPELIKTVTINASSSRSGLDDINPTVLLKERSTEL
Procedure: FIG. 1 is a bar diagram illustrating COX-2 inhibitory effects of CBD and CBG used individually at different molar concentrations according to some embodiments of the present disclosure. Table 1 illustrates COX-2 inhibitory effects of some skincare active components used individually according to some embodiments of the present disclosure. The COX-2 inhibitory effects in FIG. 1 and Table 1 were determined using a fluorometric COX-2 inhibition kit from Cayman Chemical Company (Ann Arbor, Michigan, USA) according to the method of COX-2 inhibition assay as described elsewhere in the present disclosure.
Table 2 illustrates COX-2 inhibitory effects of exemplary compositions of CBD and CBG according to some embodiments of the present disclosure. The COX-2 inhibitory effects in Table 2 were determined using a fluorometric COX-2 inhibition kit from Cayman Chemical Company (Ann Arbor, Michigan, USA) according to the method of COX-2 inhibition assay as described elsewhere in the present disclosure. The compositions A, B, and C in Table 2 may be at 10 μM.
FIG. 2 is a bar diagram illustrating COX-2 inhibitory effects of CBD and CBG used individually and in combination at different molar concentrations according to some embodiments of the present disclosure. The COX-2 inhibitory effects in FIG. 1 and Table 1 were determined using a fluorometric COX-2 inhibition kit from Cayman Chemical Company (Ann Arbor, Michigan, USA) according to the method of COX-2 inhibition assay as described in the present disclosure. In FIG. 2. COMIX represents a composition (or mixture) of CBD, CBG, NMN, BAK, AGE Defense, and RC Bio. Concentrations of CBD, CBG, NMN, BAK, AGE Defense, and RC Bio in COMIX were 10 ug/mL, 2 ug/mL, 2 ug/mL, 2 ug/mL, 2 ug/mL, and 2 ug/mL, respectively. The COX-2 inhibitory effect of COMIX was measured for providing an assay basis for designing subsequent COX-2 inhibition assays. MIX′ represents a composition (or mixture) of CBD and CBG at a molar concentration ratio of 1:1. […] When a total CBD/CBG molar concentration of MIX′ was 0.5 μM, molar concentrations of CBD and CBG in MIX′ were 0.25 μM. Similarly, when a total CBD/CBG molar concentration of MIX′ was 1.0 μM, molar concentrations of CBD and CBG in MIX′were 0.5 μM; when a total CBD/CBG molar concentration of MIX′ was 5 μM, molar concentrations of CBD and CBG in MIX were 2.5 μM; when a total CBD/CBG molar concentration of MIX′ was 10 μM, molar concentrations of CBD and CBG in MIX′ were 5 μM; and when a total CBD/CBG molar concentration of MIX′ was 20 μM, molar concentrations of CBD and CBG in MIX′ were 10.0 μM.
(§1) Materials and methods: the inhibitory effects of test samples (e.g., CBD, CBG, BAK, Mix, a positive control, and/or other compounds and compositions described in the present disclosure) against COX-2 were measured by a fluorometric COX-2 inhibition kit from Cayman Chemicals (Ann Arbor, Michigan, USA) or BioVision Inc. (Mountain View, CA, USA) following the manufacturer's instructions. Briefly, a COX-2 enzyme was reconstituted with 110 μL of sterile distilled H2O and arachidonic acid was dissolved in 55 μL ethanol. COX cofactor was diluted with COX assay buffer for 200 times, and arachidonic acid and NaOH were mixed in a molar ratio of 1:1 before it was diluted for 10 times for further use. COX assay buffer (84 μL), COX probe (1 μL), diluted COX cofactor (2 μL), COX-2 enzyme (1 μL), and test samples (2 μL) were incubated in a 96-well plate at room temperature for 10 min. Next, diluted arachidonic acid/NaOH solution (10 μL) was added to each well of the 96-well plate to initiate the reaction.

[2] = target: T1, COX-2; test: fluorometric COX-2 inhibition assay (BioVision kit); type: biochemical; conditions: for COX-2 inhibitory effect compared with personal care ingredients (terpenes): all at 50 μM, FIGS. 4-6; for inhibition at 10 µM / inhibition at 50 µM: read-out: COX-2 Inhibition (%); for inhibition at 12.5 µM: read-out: COX-2 inhibitions (FIG. 5)
Procedure: The COX-2 inhibitory effects in FIGS. 4-6 were determined using a fluorometric COX-2 inhibition kit from BioVision Inc. (Mountain View, CA, USA) according to the methods described in COX-2 inhibition assay. The personal care ingredients Lim, Lin, Ner, Myc, α-pin, β-car, and α-bis represent limonene, linalool, nerolidol, myrcene, alpha-pinene, beta-caryophyllene, and alpha-bisabolol, respectively. In FIGS. 5 and 6, MIX represents a composition (or mixture) of CBD, CBG, and BAK at a molar concentration ratio of 1:1:1. MIX 50 μM, MIX 25 μM, and 12.5 μM represent total CBD/CBG/BAK molar concentrations of MIX being 50 μM, 25 μM, and 12.5 μM, respectively. CBD 50 μM represents that CBD is used individually and a molar concentration of CBD is 50 μM.
as §1, with “reaction. The fluorescence of each well was recorded at an excitation wavelength of 535 nm and an emission wavelength of 587 nm with a kinetic mode for 10 min using a plate reader (SpectraMax® M2, Molecular Devices Corp., operated by SoftmaxPro® v.4.6 software, Sunnyvale, CA, USA). […] Two points (T1 and T2) in a linear range of a plot related to the recorded fluorescence were used to obtain corresponding fluorescence values (RFU1 and RFU2). Then, a slope for a sample was calculated by dividing a net ΔRFU (RFU2-RFU1) value by the time ΔT (T2-T1). An inhibition (%) of COX-2 of the sample was determined as the following equation: Inhibition (%)=((slope of control−slope of the sample)/slope of control)×100.” for “reaction.”

[3] = system: TNF-α; test: suppression of TNF-α in inflammatory model induced by lipopolysaccharides and nigericin; type: cell-based; conditions: 20 μM; LPS and nigericin model
Procedure: (§2) FIGS. 7 and 8 are bar diagrams illustrating exemplary abilities of CBG, BAK, and a composition (i.e., Mix) of CBD, CBG, and BAK at a molar concentration of 1:1:1 to suppress activities of pro-inflammatory cytokines according to some embodiments of the present disclosure. In FIGS. 7 and 8, Model represents an inflammatory model that was induced by lipopolysaccharides and nigericin. The abilities/functions of CBG, BAK, and Mix to suppress pro-inflammatory cytokines in FIGS. 7 and 8 were measured at a total CBD/CBG/BAK molar concentration of 20 μM. An ability/function to suppress activity of a pro-inflammatory cytokine was reflected by a remaining concentration of the pro-inflammatory cytokine after the reaction. The greater the remaining concentration of the pro-inflammatory cytokine, the worse the ability to suppress activity of the pro-inflammatory cytokine.

[4] = system: IL-1β; test: suppression of IL-1β in inflammatory model, cell level; type: cell-based; conditions: 20 μM; LPS and nigericin model
Procedure: as §2
FIG. 9 is a bar diagram illustrating exemplary abilities of a composition (i.e., Mix) of CBD, CBG, and BAK at a molar concentration of 1:1:1 at different molar concentrations to suppress activity of […] according to some embodiments of the present disclosure. In FIG. 9, Model represents an inflammatory model which was different from that in FIG. 8. […]

[5] = antioxidant DPPH assay (free radical scavenging); conditions: used individually
Procedure: In some embodiments, the composition may have an antioxidant activity/effect. FIG. 10 is a bar diagram illustrating antioxidant effects of CBD, CBG, and BAK used individually according to some embodiments of the present disclosure. In some embodiments, data in the bar diagram in FIG. 10 was determined (e.g., measured) according to an antioxidant DPPH (i.e., α, α-diphenyl-β-picrylhydrazyl) assay that was well known for the skills in the art. An antioxidant effect was reflected by free radical scavenging after the reaction. The greater the free radical scavenging, the better the antioxidant effect.

Compound	inhibition at 50 µM [1]	COX-2 inhibitory effect compared with personal care ingredients (terpenes) [2]	inhibition at 10 µM [2]	inhibition at 50 µM [2]	inhibition at 12.5 µM [2]	remaining concentration of TNF-α versus Model (FIG. 7) [3]	remaining concentration of IL-1β versus Model (FIG. 8) [4]	antioxidant effect compared with the other compounds (FIG. 10) [5]	antioxidant effect, free radical scavenging (FIG. 10) [5]	COX-2 inhibition corresponding to plateau (FIGS. 3A, 3B) [1]	COX-2 inhibitory effect (FIG. 1) [1]	COX-2 Inhibition (%) ([1]; compound used individually at 50 μM)
C=C[C@@](C)(/C=C/c1ccc(O)cc1)CCC=C(C)C [BAK, bakuchiol]	81.9%	better COX-2 inhibitory effects than the personal care ingredients	45%	67.3%	~60%	lower than the remaining concentration of TNF-α corresponding to Model	had an activity to suppress activity of IL-113	better antioxidant effect than CBG and CBG	had an antioxidant effect			
C=C(C)[C@@H]1CCC(C)=C[C@H]1c1c(O)cc(CCCCC)cc1O [CBD, cannabidiol, reference compound]	71.9%	better COX-2 inhibitory effects than the personal care ingredients	42%	52.5%	~60%				had an antioxidant effect	about 60%	had a COX-2 inhibitory effect	
CCCCCc1cc(O)c(C/C=C(\C)CCC=C(C)C)c(O)c1 [CBG, cannabigerol]	87.4%	better COX-2 inhibitory effects than the personal care ingredients	51.9%	65.7%	~60%	lower than the remaining concentration of TNF-α corresponding to Model	had an activity to suppress activity of IL-113		had an antioxidant effect	about 60%	had a COX-2 inhibitory effect	
Cn1c(=O)c2c(ncn2C)n(C)c1=O [Caffeine, caffeine, reference compound]	63.5%											
NC(=O)c1ccc[n+]([C@@H]2O[C@H](COP(=O)([O-])O)[C@@H](O)[C@H]2O)c1 [NMN, nicotinamide mononucleotide]												19.63%
